Measurements published in patent publication US11590117B2, “Treatment of a hematologic malignancy with 2-(4-chlorophenyl)-n-((2-(2,6-dioxopiperidin-3-yl)-1-oxoisoindolin-5-yl)methyl)-2,2-difluoroacetamide” (priority 2016, dated 2023).
pEC50: −log10 of the molar value. Like-named read-outs stand apart in the source and are kept apart here.

Assays:
HL-60 human AML cells = experiment: HL-60 IV AML xenograft model, bone marrow histology; assay type: in vivo, SCID mice
Protocol: In this study, different Compound 1 dosing schedules (5 mg/kg, BID×5 consecutive days versus 2.5 mg/kg, BID×10 consecutive days) were studied while maintaining the total amount of drug administered constant. Vehicle control animals were treated with 5% N-methyl-2-pyrrolidone (NMP)/45% PEG 400/50% saline. Treatment was initiated 6 weeks post inoculation. Vehicle and Compound 1 treatment groups were terminated either on Day 7 (following 5 consecutive days of 5 mg/kg twice a day [BID] Compound 1) or on Day 11 (following 10 consecutive days of 2.5 mg/kg BID Compound 1) post treatment initiation. The primary endpoint for the study was percentage of hCD33+/CD45+ cells in the BM by FACS analysis. Additional endpoints included cell viability, body weight, and BM histology.
The alternate femur of vehicle and Compound 1-treated animals was fixed in formalin, embedded in paraffin and processed for hematoxylin and eosin staining. A single tissue section/animal was used for histological analysis and the percent of tumor in viable bone marrow was estimated based on the area occupied by tumor cells. There was a significant 35% reduction (p<0.006 relative to the vehicle control) in the percentage of viable tumor in the bone marrow with Compound 1 (5 mg/kg) BID×5 treatment. […]

AML-193 = experiment: IncuCyte Kinetic Caspase-3/7 Apoptosis Assay; assay type: cell-based; details: Homo sapiens, read-out: Compound 1-induced Apoptosis EC50
From the text: (§1) Methods. Acute Myeloid Leukemia Cell Line Panel: Human AML cell lines, AML-193, F36-P, GDM-1, HL-60, HNT-34, Kasumi-1, Kasumi-3, KG-1, KG-1a, ML-2, MOLM-13, MUTZ-8, MV-4-11, NOMO-1, OCI-AML2, OCI-AML3, SIG-M5, TF-1, THP-1, and UT-7 were obtained from American Type Culture Collection (ATCC; Manassas, Va.) and Deutsche Sammlung von Mikroorganismen und Zellkulturen (DSMZ) (Germany) cell banks. The AML panel includes cell line(s) from each FAB classification (M0-M7) (Table 7).
(§2) Cell Culture Conditions: Cell lines were maintained in growth media containing 20% fetal bovine serum (FBS) (Hyclone Cat no. SH30910.03, Lot no. AZF188864; Corning REFno. 35-010-CV, Lot no. 35010124) supplemented with or without 10 ng/mL human recombinant granulocyte-macrophage colony stimulating factor (Sigma-Aldrich Cat no. SRP3050) (Table 8). Medium was purchased from ATCC (Cat no. 30-2001, 30-2002, 30-2003, 30-2005) and Gibco (REF no. 12561-056). Human recombinant granulocyte macrophage colony stimulating factor (GM-CSF) was expressed in Escherichia coli. The cell doubling times for each cell line were provided by ATCC and DSMZ. Cells were maintained in humidified incubators at 5% carbon dioxide (CO2). All cell lines were acclimated to Eagle's minimal essential medium (EMEM)+20% FBS with or without GM-CSF over 2 to 4 weeks prior to live cell imaging using IncuCyte Zoom (Essen Biosciences). The use of EMEM was necessary to eliminate background fluorescence caused by riboflavin in most media.
(§3) Incubation of Cell Cultures with Compound 1: Compound 1 was provided for studies by Celgene chemistry group at a stock concentration of 30 mM in 20 μL dimethyl sulfoxide (DMSO) frozen. Costar 96-well cell culture plates (Corning Cat no. 3595) were coated with 100 μL of 10 µg/mL fibronectin (Sigma-Aldrich Cat no. F1141) for 4 hours at 37° C. and immediately used or refrigerated overnight for later use. Cells (3000 to 6000 cells) were plated in growth medi in fibronectin-coated 96-well plates and incubated for a minimum of a few hours to overnight. Cells were incubated with a 12-point concentration response in triplicate with Compound 1 ([…]) including DMSO and Media controls. A 3-fold serial dilution of Compound 1 starting from a concentration of 200 μM in 0.6% DMSO (diluted in Media) was performed. For most sensitive cell lines, a 3-fold serial dilution of Compound 1 starting from a concentration of 20 μM in 0.6% DMSO (diluted in media) was performed. A volume of 5 μL or 10 μL for each dilution was added to 100 μL or 200 μL cells, respectively (0.3% DMSO final) and incubated for live cell imaging.
(§4) Live Cell Imaging on IncuCyte Zoom: Following incubation of cells with Compound 1, diluted Caspase 3/7 reagent (Essen Biosciences Cat no. 4440) is added to each well. The Caspase-3/7 reagent couples the activated caspase-3/7 recognition motif (DEVD) to NucView™488, a DNA intercalating dye. The cleavage of substrate by activated caspase-3/7 results in the release of the DNA dye and green fluorescent staining of nuclear DNA. This allows imaging of cells undergoing caspase-3/7 mediated apoptosis over time. Caspase-3/7 activation was quantified using the IncuCyte™ ZOOM basic analyzer. Red-labeled cell lines were also imaged over time using the IncuCyte™ ZOOM basic analyzer, for determination of both cell doubling time and Compound 1 effect on cell viability. Experiments were performed at least two times in each cell line.
(§5) Next, a 4 parameter log-logistic model was used to determine relative EC50 at each time point by the ‘drm’ function from the R ‘drc’ package (Ritz C, Streibig J C. Bioassay Analysis using R. J. Statist. Software 2005; 12(5):1-22). Goodness of fit was measured by R squared (coefficient of determination or the amount of variation explained by the model fit) of ≥80%, and EC50 parameter was assessed by having a ratio of standard error to the parameter of ≤40%, and the presence of at least one concentration point above and below the reported EC50. […]

MV-4-11 = experiment: IncuCyte Kinetic Caspase-3/7 Apoptosis Assay; assay type: cell-based; details: Homo sapiens, read-out: Compound 1-induced Apoptosis EC50
From the text: as §1, §2, §3, §4, §5

MUTZ-8 = experiment: IncuCyte Kinetic Caspase-3/7 Apoptosis Assay; assay type: cell-based; details: Homo sapiens, read-out: Compound 1-induced Apoptosis EC50
From the text: as §1, §2, §3, §4, §5

GDM-1 = experiment: IncuCyte Kinetic Caspase-3/7 Apoptosis Assay; assay type: cell-based; details: Homo sapiens, read-out: Compound 1-induced Apoptosis EC50
From the text: as §1, §2, §3, §4, §5

KG-1 = experiment: IncuCyte Kinetic Caspase-3/7 Apoptosis Assay; assay type: cell-based; details: Homo sapiens, read-out: Compound 1-induced Apoptosis EC50
From the text: as §1, §2, §3, §4, §5

SMILES: O=C1CCC(N2Cc3cc(CNC(=O)C(F)(F)c4ccc(Cl)cc4)ccc3C2=O)C(=O)N1 (stereo not shown) [Compound 1, 2-(4-chlorophenyl)-N-((2-(2,6-dioxopiperidin-3-yl)-1-oxoisoindolin-5-yl)methyl)-2,2-difluoroacetamide]
- reduction in percentage of viable tumor in the bone marrow (histology) (HL-60 human AML cells; 2.5 mg/kg BID×10, relative to vehicle control, not statistically significant): 23.5%
- reduction in percentage of viable tumor in the bone marrow (histology) (HL-60 human AML cells; 5 mg/kg BID×5, p<0.006 relative to vehicle control): 35%
- pEC50 (AML-193; 24 hr): 6.60
- pEC50 (AML-193; 48 hr): 7.05
- pEC50 (AML-193; 72 hr): 7.33
- pEC50 (AML-193; 96 hr): 7.22
- pEC50 (MV-4-11; MV4-11, 12 hr): 6.64
- pEC50 (MV-4-11; MV4-11, 24 hr): 6.78
- pEC50 (MV-4-11; MV4-11, 48 hr): 7.49
- pEC50 (MV-4-11; MV4-11, 72 hr): 7.80
- pEC50 (MV-4-11; MV4-11, 96 hr): 7.77
- pEC50 (MUTZ-8; 24 hr): 7.06
- pEC50 (MUTZ-8; 48 hr): 7.40
- pEC50 (MUTZ-8; 72 hr): 7.74
- pEC50 (MUTZ-8; 96 hr): 7.82
- pEC50 (GDM-1; 12 hr): 6.96
- pEC50 (GDM-1; 24 hr): 6.50
- pEC50 (GDM-1; 48 hr): 7.31
- pEC50 (GDM-1; 72 hr): 7.48
- pEC50 (GDM-1; 96 hr): 7.60
- pEC50 (KG-1; 12 hr): 7.28
- pEC50 (KG-1; 24 hr): 6.97
- pEC50 (KG-1; 48 hr): 7.41
- pEC50 (KG-1; 72 hr): 7.59
- pEC50 (KG-1; 96 hr): 7.60
